Key:
[1] = system: LCAT; settings: cited from earlier work
Source text: Therefore, this has long been a sought-after property of synthetic HDL-mimetic nanodiscs and apoA-I mimetic peptides. The nativelike maturation of the nanodiscs by lecithin–cholesterol acyltransferase (LCAT) has been regarded as a desired feature as it would lead to the esterification of free CHOL and the formation of hydrophobic cholesteryl ester (CE)-rich core. […] The ... || To investigate the location, conformation, and dynamics of apoA-Imimetic peptides in nanodiscs in silico, we complexed coarse-grained models of DMPC lipids with models of apoA-Imimetic peptides 22A and 22A-K and simulated the systems up to 80 μs, measured in the effective Martini force field time. To prepare the systems, 200 lipids and 28 peptides were placed randomly into the simulation box, and after a short vacuum simulation to compress them, the systems were solvated. Equilibrated nanodiscs formed rapidly after starting the production runs. The proteolytic removal of C-terminal lysine of 2 ... || (+ 2 further places)

[2] = system: LCAT; experiment: QCM: LCAT binding to peptide-lipid nanodiscs on sensor; set-up: species or system human; settings: for estimated number of LCAT enzymes bound per disc: calculated from adsorbed mass after LCAT injection (10 nM LCAT in PBS, 75 μL/min, 17 min, 20 °C), DMPC nanodiscs, three measurements; for adsorption of LCAT on the discs (in words): 10 nM LCAT in PBS, 20 °C, versus 22A
Source text: (§1) ApoA-I mimetic peptides 22A ([…]), 22A-K22Q ([…]), and 22A-R7Q ([…]) were obtained from Peptide Protein Research Ltd. (Fareham, UK). 1,2-Dimyristoyl-sn-glycerol-3-phosphocholine (DMPC), 1,2-dipalmitoyl-sn-glycerol-3-phosphocholine (DPPC), and ergosta-5,7,9,(11),22-tetra-3beta-ol (dehydroergosterol, DHE) were purchased from Avanti Polar Lipids Inc. (Alabaster, AL). Recombinant human lecithin cholesterol acyltransferase (LCAT) was synthesized by ProSpec-Tany TechnoGene Ltd. (East Brunswick, NJ). Cholesterol oxidase (COx) was obtained from Sigma-Aldrich (St. Louis, MO).
Before QCM measurements, the LCAT stock solution was prepared by dissolving 10 μg of LCAT in 500 μL of PBS. The solution was centrifuged (14 000g) twice through Amicon Ultra-0.5, 10 kDa cutoff filter (Sigma-Aldrich) for buffer exchange and purification. The retentate was diluted to a total volume of 500 μL (PBS) after each step. Prepared 20 μg/mL (∼430 nM) LCAT solution was stored in −20 °C before further use.
(§2) Impedance-based QCM instrument QCM-Z500 (KSV Instruments Ltd., Helsinki, Finland) was used for the measurements. The temperature was kept constant at 20 °C. Before measurements, silica-coated sensors (Q-Sense Inc./Biolin Scientific, Västra Frölunda, Sweden) were flushed with 70% (v/v) ethanol and ultrapure water, dried under nitrogen flow, and oxygen-plasma-treated (PDC-002; Harrick Plasma, Ithaca, NY) for 5 min at 29.6 W and 133–173 Pa. Samples were injected into the flow channel using a peristaltic pump system. After the baseline of the signal at different frequency overtones (3, 5, and 7) was stabilized in PBS, a nanodisc surface was formed by flowing nanodisc solution (0.15 mg/mL in PBS, 150 μL/min) on the sensor for 5 min, until the signal was again stabilized. Flow speed was then decreased to 75 μL/min for 5 min of flow with PBS to ensure a solid, uniform nanodisc surface. Next, 10 nM (0.47 μg/mL) LCAT was then injected through the flow channel at 75 μL/min for 17 min. Then, the running solution was again changed to PBS to see the frequency signal stabilize. All measurements were performed three times; between measurements, the sensor and the flow channel were cleaned in situ by 3 min sequential injections of 20 mM CHAPS, 2% (v/v) Hellmanex, 70% (v/v) ethanol, and ultrapure water at 150 μL/min. Frequency overtone signals were normalized, baseline corrected, and averaged for each measurement.

[3] = system: LCAT; settings: cited from earlier work; remark: listed apart in the source
Source text: The ... || The formation of acyl intermediate of LCAT requiring the entry of PCs into the active site is another important factor in LCAT activity. […] We have also ...

[4] = system: recombinant human lecithin cholesterol acyltransferase (LCAT); experiment: LCAT activity assay (DHE esterification in DMPC/DHE/peptide nanodiscs); type: biochemical; settings: relative to 22A, 30 min; for LCAT activity (in words): pH 7.4, 37 °C, fluorescence
Source text: as §1
The LCAT activity assay relies on the integration of DHE in the nanodisc structure as a substrate for LCAT. DHE is a naturally occurring fluorescent sterol analog; the presence of three conjugated double bonds in the steroid ring system gives this probe a slight fluorescence in the near-UV region of the spectrum.[42] As a consequence of the acyltransferase activity of LCAT, DHE in the PL bilayer is stored in the inner core of sHDL as DHE-ester. The esterification of DHE causes a shift in the sterol analog emission wavelength from 372 to 425 nm; this shift, together with the use of COx, which selectively renders the unesterified DHE nonfluorescent, allows the exclusive detection and quantification of the DHE-ester. This provides information about the LCAT–sHDL interaction and activity.[43],[44] sHDL containing the fluorescent sterol DHE for LCAT activity assay was prepared via thermal cycling method. In a glass vial, DMPC and DHE in chloroform were combined at a 9:1 molar ratio and were first dried with Rotavapor R-200 at room temperature for 1–2 h and then an additional 1 h under nitrogen flow at room temperature. […] After this, the plates went through a second round of incubation at 37 °C with gentle shaking (250 rpm/h) for 1 h to extinguish the fluorescence of unesterified DHE. After re-equilibrating the plate at room temperature, DHE fluorescence was detected at an excitation wavelength of 325 nm and an emission wavelength of 425 nm using Varioskan LUX (Thermo Scientific, Waltham, MA). […]

[5] = QCM: adsorption of nanodiscs on silica sensor; type: physicochemical; settings: nanodiscs 0.15 mg/mL in PBS, 150 μL/min, 5 min, 20 °C, versus 22A
Protocol: as §2, with “Frequency overtone signals were normalized, baseline corrected, and averaged for each measurement.” left out

Sequence | LCAT activation (in words) ([1]; versus native apoA-I) | estimated number of LCAT enzymes bound per disc [2] | decrease of CHOL esterification on removal of K22 ([1]; 22A without C-terminal K22 versus 22A) [%] | LCAT activation on removal of C-terminal lysine (in words) ([1]; proteolytic removal in serum) | effect on phospholipolytic action of LCAT on removal of K22 (in words) [3] | LCAT activity (in words) [4] | adsorption of nanodiscs on the sensor (in words) [5] | adsorption of LCAT on the discs (in words) [2] | decrease of LCAT activity ([4]; lipid:peptide 2:1 w/w, DHE 0-35 μM, LCAT 7 μg/mL, PBS + 1 mM EDTA + 60 μM albumin pH 7.4, 37 °C, fluorescence 325/425 nm, triplicate, two independent experiments) [%]
PVLDLFRELLNELLEALKQKLK [22A, apoA-I mimetic peptide 22A (Esperion Therapeutics, ESP24218)] | activate LCAT nearly as well as native apoA-I | approximately one LCAT was bound to every two nanodiscs | – | – | – | – | – | – | –
PVLDLFRELLNELLEALKQKL [22A-K, 22A without C-terminal lysine K22] | – | – | ~60 | significantly reduces LCAT activation | no effect on phospholipolytic action mediated by LCAT | – | – | – | –
PVLDLFQELLNELLEALKQKLK [22A-R7Q, 22A variant with charge neutralization of residue R7] | – | one LCAT was attached to every five nanodiscs | – | – | – | nearly identical activity with 22A | decreased adsorption of nanodiscs on the sensor | reduced the adsorption of LCAT on the discs | –
PVLDLFRELLNELLEALKQKLQ [22A-K22Q, 22A variant with charge neutralization of residue K22] | – | one LCAT was attached to every five nanodiscs | – | – | – | decreased the LCAT activation potency | decreased adsorption of nanodiscs on the sensor | reduced the adsorption of LCAT on the discs | 50

— article PMC9644404, “Mechanistic Insights into the Activation of Lecithin–Cholesterol Acyltransferase in Therapeutic Nanodiscs Composed of Apolipoprotein A-I Mimetic Peptides and Phospholipids” (Molecular Pharmaceutics, 2022)
